Data as given in the supplement of paper PMC10307832.

Assays:
Assay in all cases: relative viability (nuclei count vs DMSO), 5 days (fraction); higher = more cells survive
[1] = compound: C[C@@H](C(=O)N[C@@H](C1CCCCC1)C(=O)N2CCC[C@H]2C(=O)N[C@@H]3[C@@H](CC4=CC=CC=C34)OCC#CC#CCO[C@@H]5CC6=CC=CC=C6[C@@H]5NC(=O)[C@@H]7CCCN7C(=O)[C@H](C8CCCCC8)NC(=O)[C@H](C)NC)NC [AZD5582] + Cc1cc(Nc2cc(N3CCN(C)CC3)nc(Sc3ccc(NC(=O)C4CC4)cc3)n2)n[nH]1 [Tozasertib] (partner 0.1 µM)
Summary of the method: (§1)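 Dosing by pin tool came one day after lung cancer cell lines were seeded in 1536-well plates, using either one drug or a fixed anchor-drug dose plus five library-drug doses (not always all listed) in √10 steps. After 5 days, nuclei were counted on 4× images. Relative viability is treated-well nuclei count divided by vehicle-well nuclei count, and values are medians of duplicate plates.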

[2] = compound: C[C@@H](C(=O)N[C@@H](C1CCCCC1)C(=O)N2CCC[C@H]2C(=O)N[C@@H]3[C@@H](CC4=CC=CC=C34)OCC#CC#CCO[C@@H]5CC6=CC=CC=C6[C@@H]5NC(=O)[C@@H]7CCCN7C(=O)[C@H](C8CCCCC8)NC(=O)[C@H](C)NC)NC [AZD5582] + NC(=O)Nc1cc(-c2cccc(F)c2)sc1C(=O)N[C@H]1CCCNC1 [AZD7762] (partner 0.2 µM)
Summary of the method: as §1

[3] = compound: C[C@@H](C(=O)N[C@@H](C1CCCCC1)C(=O)N2CCC[C@H]2C(=O)N[C@@H]3[C@@H](CC4=CC=CC=C34)OCC#CC#CCO[C@@H]5CC6=CC=CC=C6[C@@H]5NC(=O)[C@@H]7CCCN7C(=O)[C@H](C8CCCCC8)NC(=O)[C@H](C)NC)NC [AZD5582] + Nc1nc2[nH]cc(CCc3ccc(C(=O)N[C@@H](CCC(=O)O)C(=O)O)cc3)c2c(=O)[nH]1 [Pemetrexed] (partner 0.2 µM)
Summary of the method: as §1

[4] = compound: Cn1nnc2c(C(N)=O)ncn2c1=O [Temozolomide] + N=C(N)NC(=N)NCCc1ccccc1 [Phenformin] (partner 250 µM)
Summary of the method: as §1

| Cell Line | relative viability ([1]; first compound 0.001581 µM) | relative viability ([1]; first compound 0.005 µM) | relative viability ([1]; first compound 0.01581 µM) | relative viability ([1]; first compound 0.05 µM) | relative viability ([2]; first compound 0.001581 µM) | relative viability ([2]; first compound 0.005 µM) | relative viability ([2]; first compound 0.01581 µM) | relative viability ([2]; first compound 0.05 µM) | relative viability ([3]; first compound 0.001581 µM) | relative viability ([3]; first compound 0.005 µM) | relative viability ([3]; first compound 0.01581 µM) | relative viability ([3]; first compound 0.05 µM) | relative viability ([4]; first compound 0.2 µM) | relative viability ([4]; first compound 0.6325 µM) | relative viability ([4]; first compound 2 µM) | relative viability ([4]; first compound 6.325 µM) | relative viability ([4]; first compound 20 µM) |
| --- | --- | --- | --- | --- | --- | --- | --- | --- | --- | --- | --- | --- | --- | --- | --- | --- | --- |
| LXF-289 | 0.195 | 0.192 | 0.18 | 0.191 | 1.01 | 1.09 | 0.963 | 1.12 | 0.798 | 0.815 | 0.872 | 0.797 | 0.553 | 0.53 | 0.511 | 0.457 | 0.458 |
| NCI-H23 | 0.304 | 0.278 | 0.328 | 0.347 | 0.163 | 0.172 | 0.177 | 0.227 | 0.578 | 0.514 | 0.55 | 0.455 | 0.868 | 0.853 | 0.789 | 0.784 | 0.791 |
| NCI-H322M | 0.499 | 0.579 |  | 0.523 | 0.53 | 0.598 | 0.504 | 0.6 | 0.705 | 0.732 | 0.659 | 0.785 |  | 0.821 | 0.811 | 0.769 | 0.574 |
| NCI-H358 | 0.126 | 0.109 | 0.102 | 0.101 | 0.471 | 0.586 | 0.697 | 0.506 | 0.178 | 0.171 | 0.179 | 0.17 | 0.21 | 0.425 | 0.367 | 0.296 | 0.257 |
